According to EP4475229A1, “QUINONE-TYPE MOLECULES FOR ZINC-ION AQUEOUS BATTERIES” (Centre National de la Recherche Scientifique, priority 2023, dated 2024):
Values after ≈ are worked out from the molar mass of the structure shown. Read-outs that look alike come from different tables or passages of the source. Values belong to the compound of their own block, whether it stands above or below them.

What was measured:
[1] = cited from earlier work
[2] = for saturation limit in comparison with compound 2 (2,5 DTBHQ) / saturation limit: 1 week at room temperature; for saturation limit: argon
physchem = details: water
[3] = Solubility of literature quinones in aqueous electrolytes, reported or estimated from references
[4] = 1.25 M Zn(CH3COO)2, pH 4-5, 10080 min

Structure (SMILES): Oc1ccc(O)cc1 [1,4-benzohydroquinone]
- solubility in water compared with 1,4-benzoquinone ([1]; water, background statement): six times more soluble

Structure (SMILES): CC(C)(C)C1=CC(=O)C(C(C)(C)C)=CC1=O [compound 1]
- Solubility oxidized state [2, 4]: 26 µM (≈ 5.73 µg/mL)
- Solubility reduced state [2, 4]: 204 µM (≈ 44.9 µg/mL)
- saturation limit in comparison with compound 2 (2,5 DTBHQ) ([2]; acetate electrolytes): nearly ten times lower
- saturation limit ([2]; acetic acid/potassium acetate pH 4.8, acetic acid/zinc acetate pH 4.5, zinc acetate 1.25 M pH 4.2): 26.16 µmol/L
- solubility thermodynamic at 1 week (physchem): 5.7 µg/mL (≈ 25.9 µM)

Structure (SMILES): O=C1C(Cl)=C(Cl)C(=O)C(Cl)=C1Cl [p-TCBQ]
- Solubility oxidized state ([2]; pH 7): Slightly soluble

- Solubility factor vs. 2,5 DTBHQ ([3]; 2M ZnSO4, pH 4-5, ref [4]): >11
- Solubility factor vs. 2,5 DTBHQ ([3]; 2.5M Li2SO4, pH 7, ref [5]): > 10000
- Solubility reduced state ([3]; 4.4M H2SO4, pH 0, ref [5], presumed): Presumed Not soluble
- maximum solubility relative to compound 2 (2,5 DTBHQ) ([3]; estimated from ref [4], reduced state): approx. 11 times
Structure (SMILES): O=c1c(=O)c2cccc3c2-c2c1cccc2c(=O)c3=O [PTO]
- Solubility oxidized state ([1]; 2.5M Li2SO4, pH 7, ref [5]): Soluble (Fig. S21)
- Solubility oxidized state ([1]; 4.4M H2SO4, pH 0, ref [5]): 0.0047 (Fig. S18) mmol/L

- Solubility factor vs. 2,5 DTBHQ ([3]; 1M ZnSO4, pH 4-5, ref [1]): ~100
Structure (SMILES): NC1=C(N)C(=O)C(N)=C(N)C1=O [TABQ]
- Solubility oxidized state ([1]; 1M ZnSO4, pH 4-5, ref [1]): 1.7 mmol/L (≈ 286 µg/mL)

Structure (SMILES): O=C1C(=O)C(Cl)=C(Cl)C(Cl)=C1Cl [o-TCBQ]
- Solubility factor vs. 2,5 DTBHQ ([3]; 1M ZnSO4, pH 4-5, ref [1]): ~100
- Solubility oxidized state ([1]; 1M ZnSO4, pH 4-5, ref [1]): 2.3 mmol/L (≈ 566 µg/mL)

- Solubility factor vs. 2,5 DTBHQ ([3]; 1M ZnSO4, pH 4-5, ref [1]): ~100
Structure (SMILES): O=C1C(O)=C(O)C(=O)C(O)=C1O [THBQ]
- Solubility oxidized state ([1]; 1M ZnSO4, pH 4-5, ref [1]): 3.4 mmol/L (≈ 585 µg/mL)

Structure (SMILES): CC(C)(C)c1cc(O)ccc1O [compound 8]
- Solubility reduced state [2, 4]: 20400 µM (≈ 3390 µg/mL)
- saturation limit in comparison with compound 2 (2,5 DTBHQ) ([2]; acetate electrolytes): ~100 times
- saturation limit ([2]; acetate electrolytes): 20.4 mM/L
